According to patent US4826968A, “S-alkylated coenzyme A with effect on polyamine acetylase” (Research Corporation, priority 1985, dated 1989):

How the values were obtained:
[1] = molecular target: T1, spermidine/spermine N^1 -acetyltransferase (Rattus norvegicus, UniProt Q6P9U6); assay: Cytosolic spermidine acetyltransferase assay ([14C]acetyl Coenzyme A, cellulose phosphate paper); type: biochemical; conditions: for relative effectiveness in inhibiting the acetylation of spermidine and spermine: inhibitors compared with one another; for inhibitory activity towards spermidine/spermine N^1 -acetyltransferase / potency relative to the sym-norspermidine derivative: FIG. 2
T1 construct: Cytosolic spermidine acetyltransferase activity was extracted from the livers of male Sprague-Dawley rats; from tissue; host or cells: liver of male Sprague-Dawley rats, 6 h after intraperitoneal carbon tetrachloride; cytosolic extract
Protocol: Spermidine acetyltransferase activity was assayed in a volume of 100 μl containing 100 μg of extract protein, 300 nmol spermidine, 0.8 nmol (40 nCi) [1^14 C] acetyl Coenzyme A and 10 μmol tris-HCl (pH 7.8). The reaction was allowed to proceed at 30° C. for 10 min and was terminated by the addition of 20 μl of 1M NH2 OH.HCl. Protein was precipitated by boiling the samples for 3 min and was removed by centrifugation. 50 μl of the supernatant was applied to a 2.2 cm diameter disc of cellulose phosphate paper and was allowed to dry. The discs were washed in a beaker five times with water and three times with ethanol.
Non-enzymatic blank values for both histone and spermidine acetylation assays were routinely obtained by incubations of all the reactants excluding enzyme in the appropriate buffer.

histone acetylation = conditions: mammalian cells; cited from earlier work
rat hematoma cells = assay: DNA replication and proliferation of rat hematoma cells in culture; type: cell-based
[2] = system: human prostate gland adenoma cells; assay: DNA replication and proliferation of human prostate gland adenoma cells in culture; type: cell-based
tumor growth = assay: Experimental tumor models, tumor growth; type: in vivo; conditions: several experimental tumor models
murine tumors = assay: Murine tumors, alone and in combination with three cytotoxic agents; type: in vivo
ventral prostate gland = assay: Prostate gland secretion, growth and regrowth in rats; type: in vivo
embryogenesis = assay: Fertility, implantation and embryonic development in treated mice; type: in vivo
[3] = system: Trypanosoma brucei brucei; assay: Replication of and infection by Trypanosoma brucei brucei; conditions: in vivo
[4] = system: exoerythrocyctic infection (malaria); assay: Animal studies of malaria; type: in vivo
Pneumocystis carinii = assay: Treatment of Pneumocystis carinii pneumonia; type: in vivo; conditions: opportunistic infection in the setting of AIDS
[5] = molecular target: T1, spermidine/spermine N^1 -acetyltransferase; assay: Cytosolic spermidine acetyltransferase assay ([14C]acetyl Coenzyme A, cellulose phosphate paper); type: biochemical; conditions: highly purified spermidine/spermine N^1 -acetyltransferase; FIG. 1
[6] = female mice treated prior to copulation and up to 18 days after fecundation

T1 sequence (Q6P9U6 1-171): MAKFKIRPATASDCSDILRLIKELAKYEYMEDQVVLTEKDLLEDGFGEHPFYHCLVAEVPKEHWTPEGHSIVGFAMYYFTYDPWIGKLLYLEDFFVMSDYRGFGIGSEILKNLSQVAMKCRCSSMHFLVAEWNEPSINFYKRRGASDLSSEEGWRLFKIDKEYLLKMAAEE

Structure (SMILES): NCCCCN [putrescine]
- relative effectiveness in inhibiting the acetylation of spermidine and spermine [1]: least effective

Structure (SMILES): CC(C)(COP(=O)(O)OP(=O)(O)OC[C@H]1O[C@@H](n2cnc3c(N)ncnc32)[C@H](O)[C@@H]1OP(=O)(O)O)[C@@H](O)C(=O)NCCC(=O)NCCSCC(=O)NCCCCNCCCN [II, N-[2-(S-Coenzyme A)acetyl] spermidine amide]
- inhibitory activity towards spermidine/spermine N^1 -acetyltransferase [1]: strong inhibitors
- potency relative to the sym-norspermidine derivative [1]: more than an order of magnitude less potent

Structure (SMILES): CC(C)(COP(=O)(O)OP(=O)(O)OC[C@H]1O[C@@H](n2cnc3c(N)ncnc32)[C@H](O)[C@@H]1OP(=O)(O)O)[C@@H](O)C(=O)NCCC(=O)NCCSCC(=O)NCCCN [amide derived from 1,3-diaminopropane]
- potency relative to the sym-norspermidine derivative [1]: much less active
- inhibition relative to coenzyme A ([1]; FIG. 2C): marginally more inhibitory than coenzyme A

Structure (SMILES): CC(C)(COP(=O)(O)OP(=O)(O)OC[C@H]1O[C@@H](n2cnc3c(N)ncnc32)[C@H](O)[C@@H]1OP(=O)(O)O)[C@@H](O)C(=O)NCCC(=O)NCCSCC(=O)NCCCCN [amide derived from putrescine]
- potency relative to the sym-norspermidine derivative [1]: much less active

Structure (SMILES): NCCCN [1,3-diaminopropane]
- relative effectiveness in inhibiting the acetylation of spermidine and spermine [1]: marginal superiority to putrescine

Structure (SMILES): NCCCCNCCCCN [sym-homospermidine]
- relative effectiveness in inhibiting the acetylation of spermidine and spermine [1]: an order more effectiveness than the other two compounds

Structure (SMILES): CC(C)(COP(=O)(O)OP(=O)(O)OC[C@H]1O[C@@H](n2cnc3c(N)ncnc32)[C@H](O)[C@@H]1OP(=O)(O)O)[C@@H](O)C(=O)NCCC(=O)NCCSCC(=O)NCCCNCCCCN [I, N-[2-(S-Coenzyme A)acetyl] spermidine amide]
- inhibitory activity towards spermidine/spermine N^1 -acetyltransferase [1]: strong inhibitors
- potency relative to the sym-norspermidine derivative [1]: more than an order of magnitude less potent

Structure (SMILES): CC(C)(COP(=O)(O)OP(=O)(O)OC[C@H]1O[C@@H](n2cnc3c(N)ncnc32)[C@H](O)[C@@H]1OP(=O)(O)O)[C@@H](O)C(=O)NCCC(=O)NCCSCC(=O)NCCCCNCCCCN [sym-homospermidine derivative]
- potency relative to the sym-norspermidine derivative [1]: ten times less active

Structure (SMILES): CC(C)(COP(=O)(O)OP(=O)(O)OC[C@H]1O[C@@H](n2cnc3c(N)ncnc32)[C@H](O)[C@@H]1OP(=O)(O)O)[C@@H](O)C(=O)NCCC(=O)NCCSCC(=O)NCCCNCCCCN [N-[2-(S-Coenzyme A)acetyl] spermidine amide]
- histone acetylation (histone acetylation): inhibit histone acetylation

Structure (SMILES): CC(C)(COP(=O)(O)OP(=O)(O)OC[C@H]1O[C@@H](n2cnc3c(N)ncnc32)[C@H](O)[C@@H]1OP(=O)(O)O)[C@@H](O)C(=O)NCCC(=O)NCCSCC(=O)NCCCNCCCN [N-[2-(S-Coenzyme A)acetyl] sym-norspermidine amide]
- inhibition of the acetylation of spermidine ([1]; crude cytosolic extracts from livers of carbon tetrachloride treated rats, FIG. 1): very potent inhibitor
- dependence of the inhibition on substrate concentration ([1]; no full kinetic analysis): greater when the assays were carried out at lower concentrations with either substrate
- DNA replication (rat hematoma cells): inhibits DNA replication
- cell proliferation (rat hematoma cells): retards proliferation
- DNA replication [2]: inhibits DNA replication
- cell proliferation [2]: retards proliferation
- tumor growth (tumor growth): Marked retardation or arrest of tumor growth
- antitumor effect alone versus each cytotoxic drug (murine tumors; alone): superior to those of each cytotoxic drug
- antitumor effect of combination with cytotoxic agents (murine tumors; combination with any of three cytotoxic agents): synegistic
- androgen-induced prostatic regrowth (ventral prostate gland; castrated rats): marked slowing
- prostate gland secretion (ventral prostate gland; rats): effectively inhibited
- growth of the ventral prostate gland (ventral prostate gland; rats, versus control group): significantly less than in the control group
- implantation (embryogenesis; [6]): no effect
- subsequent embryonic development (embryogenesis; [6]): totally inhibited
- fertility (embryogenesis; male and female mice treated prior to mating with untreated animals): no effect on fertility
- T.b. brucei infection [3]: completely eliminating the infection
- replication of Trypanosoma brucei brucei [3]: inhibits the replication
- efficacy against exoerythrocyctic infection [4]: effective therapeutic agent
- efficacy in Pneumocystis carinii pneumonia (Pneumocystis carinii): effective in treatment
- inhibition of the acetylation of spermidine [5]: very potent inhibitor
